Target: FP receptor (Homo sapiens (Human), UniProt P43088)
Assay: In vitro test of inhibition of human FP receptor activity (PGF2α-induced calcium flux in FP-expressing CHEM1 cells)
Format: cell-based
Conditions: PGF2α 2 nM, some mean values of multiple determinations
Summary of the method: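 FP antagonism in FP-expressing CHEM1 cells loaded with Fluo-8. Compound preincubated 10 min at 37° C, then receptor stimulated with 2 nM (final) PGF2α in calcium-free Tyrode with 2 mM CaCl2.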

Sequence of FP receptor (P43088 whole entry): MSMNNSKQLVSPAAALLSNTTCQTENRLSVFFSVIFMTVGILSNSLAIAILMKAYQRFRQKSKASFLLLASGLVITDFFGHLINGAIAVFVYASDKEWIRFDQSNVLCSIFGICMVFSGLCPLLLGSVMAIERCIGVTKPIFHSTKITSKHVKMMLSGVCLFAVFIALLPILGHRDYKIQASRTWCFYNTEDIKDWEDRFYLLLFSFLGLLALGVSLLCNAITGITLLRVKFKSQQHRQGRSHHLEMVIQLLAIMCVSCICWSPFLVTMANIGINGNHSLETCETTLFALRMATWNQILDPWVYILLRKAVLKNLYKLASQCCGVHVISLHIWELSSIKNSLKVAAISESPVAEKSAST

Row | Structure (SMILES) | IC50 [nM]
1 | Cc1c(N2CC3CC(C3)C2)nc2ccc(Br)cc2c1C(=O)NCC(CCC(=O)O)c1ccccc1Cl (racemic) [Example 73, (+/−)-5-[({2-[3-Azabicyclo[3.1.1]hept-3-yl]-6-bromo-3-methylquinolin-4-yl}carbonyl)amino]-4-(2-chlorophenyl)pentanoic acid] | 48
2 | Cc1c(N2CCCCC2)nc2ccc(Br)cc2c1C(=O)NCC(CCC(=O)O)c1c(Cl)cccc1Cl (racemic) [Example 241, (+/−)-5-({[6-Bromo-3-methyl-2-(piperidin-1-yl)quinolin-4-yl]carbonyl}amino)-4-(2,6-dichlorophenyl)pentanoic acid] | 12
3 | CCC1CCCN(c2nc3ccc(Br)cc3c(C(=O)NCC(CCC(=O)O)c3ccccc3OC(F)(F)F)c2C)C1 (single isomer, unassigned) [Example 206, 5-[({6-Bromo-2-[3-ethylpiperidin-1-yl]-3-methylquinolin-4-yl}carbonyl)amino]-4-[2-(trifluoromethoxy)phenyl]pentanoic acid] | 9.5
4 | Cc1c(N2CCCCC2)nc2ccc(Br)cc2c1C(=O)NCC(CCC(=O)O)c1c(Cl)ccc(Cl)c1Cl (single isomer, unassigned; (-)) [Example 173, (−)-5-({[6-Bromo-3-methyl-2-(piperidin-1-yl)quinolin-4-yl]carbonyl}amino)-4-(2,3,6-trichlorophenyl)pentanoic acid] | 2.2
5 | Cc1c(N2CCCC(F)(F)C2)nc2ccc(Br)cc2c1C(=O)NCC(CCC(=O)O)c1c(F)cccc1C(F)(F)F (single isomer, unassigned; (+)) [Example 168, (+)-5-({[6-Bromo-2-(3,3-difluoropiperidin-1-yl)-3-methylquinolin-4-yl]carbonyl}amino)-4-[2-fluoro-6-(trifluoromethyl)phenyl]pentanoic acid] | 90
6 | Cc1c(N2CCCCC2)nc2ccc(Br)cc2c1C(=O)NCC(CCC(=O)O)c1ccccc1C(F)(F)F (single isomer, unassigned; (+)) [Example 113, (+)-5-({[6-Bromo-3-methyl-2-(piperidin-1-yl)quinolin-4-yl]carbonyl}amino)-4-[2-(trifluoromethyl)phenyl]pentanoic acid] | 9.9
7 | Cc1c(N2CCCC(F)(F)C2)nc2ccc(Br)cc2c1C(=O)NCC(CCC(=O)O)c1ccccc1C(F)(F)F (racemic) [Example 117, (+/−)-5-({[6-Bromo-2-(3,3-difluoropiperidin-1-yl)-3-methylquinolin-4-yl]carbonyl}amino)-4-[2-(trifluoromethyl)phenyl]pentanoic acid] | 16
8 | [2H]C1([2H])N(c2nc3ccc(Br)cc3c(C(=O)NCC(CCC(=O)O)c3c(F)ccc(F)c3Cl)c2C)C([2H])([2H])C([2H])([2H])C1([2H])[2H] (single isomer, unassigned; (+)) [Example 281, (+)-5-[({6-Bromo-3-methyl-2-[(^2H8)pyrrolidin-1-yl]quinolin-4-yl}carbonyl)amino]-4-(2-chloro-3,6-difluorophenyl)pentanoic acid] | 80
9 | Cc1c(NCCc2ccccc2)nc2ccc(Br)cc2c1C(=O)NCC(CCC(=O)O)c1ccccc1Cl (racemic) [Example 94, (+/−)-5-[({6-Bromo-3-methyl-2-[(2-phenylethyl)amino]quinolin-4-yl}carbonyl)amino]-4-(2-chlorophenyl)pentanoic acid] | 15
10 | [2H]C1([2H])N(c2nc3ccc(Br)cc3c(C(=O)NCC(CCC(=O)O)c3ccccc3OC(F)(F)F)c2C)C([2H])([2H])C([2H])([2H])C([2H])([2H])C1([2H])[2H] (single isomer, unassigned; (+)) [Example 271, (+)-5-[({6-Bromo-3-methyl-2-[(^2H10)piperidin-1-yl]quinolin-4-yl}carbonyl)amino]-4-[2-(trifluoromethoxy)phenyl]pentanoic acid] | 6.3
11 | CCC1CCCN(c2nc3ccc(Br)cc3c(C(=O)NCC(CCC(=O)O)c3ccccc3Cl)c2C)C1 (single isomer, unassigned; (-)) [Example 60, (−)-5-[({6-Bromo-2-[3-ethylpiperidin-1-yl]-3-methylquinolin-4-yl}carbonyl)amino]-4-(2-chlorophenyl)pentanoic acid] | 7.5
12 | Cc1c(N2CCCCC2)nc2ccc(Br)cc2c1C(=O)NCC(CCC(=O)O)c1c(F)cccc1OC(F)F (single isomer, unassigned; (-)) [Example 183, (−)-5-({[6-Bromo-3-methyl-2-(piperidin-1-yl)quinolin-4-yl]carbonyl}amino)-4-[2-(difluoromethoxy)-6-fluorophenyl]pentanoic acid] | 1.6

Next, values leading:

Row | IC50 [nM] | Structure (SMILES)
13 | 84 | Cc1ccccc1C(CCC(=O)O)CNC(=O)c1c(C)c(N2CCCC2)nc2ccc(Br)cc12 (single isomer, unassigned; (+)) [Example 233, (+)-5-({[6-Bromo-3-methyl-2-(pyrrolidin-1-yl)quinolin-4-yl]carbonyl}amino)-4-(2-methylphenyl)pentanoic acid]
14 | 39 | Cc1ccccc1C(CCC(=O)O)CNC(=O)c1c(C)c(N2CCCC(F)(F)C2)nc2ccc(Br)cc12 (single isomer, unassigned; (+)) [Example 231, (+)-5-({[6-Bromo-2-(3,3-difluoropiperidin-1-yl)-3-methylquinolin-4-yl]carbonyl}amino)-4-(2-methylphenyl)pentanoic acid]
15 | 4.6 | Cc1c(N2CCCC2)nc2ccc(Br)cc2c1C(=O)NCC(CCC(=O)O)c1ccccc1C(F)(F)F (single isomer, unassigned; (-)) [Example 116, (−)-5-({[6-Bromo-3-methyl-2-(pyrrolidin-1-yl)quinolin-4-yl]carbonyl}amino)-4-[2-(trifluoromethyl)phenyl]pentanoic acid]
16 | 2.7 | Cc1c(N2CCCC(F)C2)nc2ccc(Br)cc2c1C(=O)NCC(CCC(=O)O)c1ccccc1OC(F)(F)F (single isomer, unassigned; (-)) [Example 201, (−)-5-[({6-Bromo-2-[3-fluoropiperidin-1-yl]-3-methylquinolin-4-yl}carbonyl)amino]-4-[2-(trifluoromethoxy)phenyl]pentanoic acid]
17 | 7.1 | Cc1c(N2CCCC(F)(F)C2)nc2ccc(Br)cc2c1C(=O)NCC(CCC(=O)O)c1ccccc1Cl (single isomer, unassigned; (+)) [Example 52, (+)-5-({[6-Bromo-2-(3,3-difluoropiperidin-1-yl)-3-methylquinolin-4-yl]carbonyl}amino)-4-(2-chlorophenyl)pentanoic acid]
18 | 330 | Cc1c(N2CCCC(N)C2)nc2ccc(Br)cc2c1C(=O)NCC(CCC(=O)O)c1ccccc1Cl (stereo not shown) [Example 56, 5-[({2-[3-Aminopiperidin-1-yl]-6-bromo-3-methylquinolin-4-yl}carbonyl)amino]-4-(2-chlorophenyl)pentanoic acid]
19 | 62 | Cc1c(N2CCCO2)nc2ccc(Br)cc2c1C(=O)NCC(CCC(=O)O)c1ccccc1Cl (single isomer, unassigned; (+)) [Example 40, (+)-5-({[6-Bromo-3-methyl-2-(1,2-oxazolidin-2-yl)quinolin-4-yl]carbonyl}amino)-4-(2-chlorophenyl)pentanoic acid]
20 | 110 | Cc1c(N2CC[C@H](F)C2)nc2ccc(Br)cc2c1C(=O)NCC(CCC(=O)O)c1ccccc1Cl (stereo partly drawn) [Example 65, 5-[({6-Bromo-2-[(3S)-3-fluoropyrrolidin-1-yl]-3-methylquinolin-4-yl}carbonyl)amino]-4-(2-chlorophenyl)pentanoic acid]
21 | 14 | Cc1c(N2CC[C@@H](F)C2)nc2ccc(Br)cc2c1C(=O)NCC(CCC(=O)O)c1ccccc1Cl (single isomer, unassigned; (+)) [Example 68]
22 | 9.3 | Cc1c(N2CCCCC2)nc2ccc(Br)cc2c1C(=O)NCC(CCC(=O)O)c1cccc(F)c1Cl (single isomer, unassigned; (+)) [Example 143, (+)-5-({[6-Bromo-3-methyl-2-(piperidin-1-yl)quinolin-4-yl]carbonyl}amino)-4-(2-chloro-3-fluorophenyl)pentanoic acid]
23 | 17 | Cc1c(N2CCCC(C)C2)nc2ccc(Br)cc2c1C(=O)NCC(CCC(=O)O)c1ccccc1OC(F)(F)F (single isomer, unassigned; (+)) [Example 211, (+)-5-[({6-Bromo-3-methyl-2-[3-methylpiperidin-1-yl]quinolin-4-yl}carbonyl)amino]-4-[2-(trifluoromethoxy)phenyl]pentanoic acid]
24 | 880 | Cc1c(N2CNC(=O)C2)nc2ccc(Br)cc2c1C(=O)NCC(CCC(=O)O)c1ccccc1Cl (racemic) [Example 88, (+/−)-5-({[6-Bromo-3-methyl-2-(4-oxoimidazolidin-1-yl)quinolin-4-yl]carbonyl}amino)-4-(2-chlorophenyl)pentanoic acid]
25 | 1.9 | Cc1c(N2CCCC(C)C2)nc2ccc(Br)cc2c1C(=O)NCC(CCC(=O)O)c1ccccc1OC(F)(F)F (single isomer, unassigned; (+)) [Example 212, (+)-5-[({6-Bromo-3-methyl-2-[3-methylpiperidin-1-yl]quinolin-4-yl}carbonyl)amino]-4-[2-(trifluoromethoxy)phenyl]pentanoic acid]
26 | 3.7 | Cc1c(N2CCCC(C)C2)nc2ccc(Br)cc2c1C(=O)NCC(CCC(=O)O)c1ccccc1C(F)(F)F (single isomer, unassigned; (+)) [Example 198, (+)-5-[({6-Bromo-3-methyl-2-[3-methylpiperidin-1-yl]quinolin-4-yl}carbonyl)amino]-4-[2-(trifluoromethyl)phenyl]pentanoic acid]
27 | 6.1 | Cc1c(N2CCCC(F)C2)nc2ccc(Br)cc2c1C(=O)NCC(CCC(=O)O)c1ccccc1Cl (single isomer, unassigned; (+)) [Example 188, (+)-5-[({6-Bromo-2-[3-fluoropiperidin-1-yl]-3-methylquinolin-4-yl}carbonyl)amino]-4-(2-chlorophenyl)pentanoic acid]
28 | 7.3 | Cc1c(N2CC(C)CC(C)C2)nc2ccc(Br)cc2c1C(=O)NCC(CCC(=O)O)c1ccccc1Cl (stereo not shown) [Example 63, 5-[({6-Bromo-2-[3,5-dimethylpiperidin-1-yl]-3-methylquinolin-4-yl}carbonyl)amino]-4-(2-chlorophenyl)pentanoic acid]

Source: patent US11149018B2, “Substituted N-arylethyl-2-aminoquinoline-4-carboxamides and use thereof” (Bayer Aktiengesellschaft, priority 2017, dated 2021)
